The source of these data is patent publication US12606508B2, “Cannabis extracts and uses thereof” (priority 2020, dated 2026).

Entries after “also recorded” stand apart in the source; their conditions may differ.

Common to all, as to assay type: in vivo
Assay [1] relates to C57BL6/J mice. In words: Tetrad: open field test (spontaneous/motor activity). As to conditions: mean±SEM. As for the experimental part:
(§1) Mice (n=4) were treated with Δ^9-THCB (10 and 20 mg/kg) or vehicle (0.9% saline and 0.05% DMSO) by intraperitoneal (i.p.) administration. Mice were evaluated for hypomotility (open field test), hypothermia (body temperature test), antinociceptive (hot plate test), and cataleptic effects (bar test), using the tetrad tests as described in the protocol by Metna-Laurent M. et al.^62 Statistical analysis was performed using the Kruskall-Wallis test and Dunn's post hoc tests.
Open field test. The open field test (OFT) was performed 30 min after drug or vehicle injection. The apparatus was cleaned before each test using a 70% EtOH solution. After randomly assigning naïve mice to a treatment group, the operator started to record animal behaviors, which were stored and analyzed using an automated behavioral tracking system (Smart v3.0, Panlab Harvard Apparatus). Mice were placed in an OFT arena (1×w×h: 44 cm×44 cm×30 cm), and ambulatory activity (total distance travelled in cm), was recorded for 15 min and analyzed.
(§2) Male C57BL6/J mice (7 weeks old; n=5) were treated with Δ^9-THCP (10, 5 and 2.5 mg/kg) or vehicle (1:1:18; ethanol:Kolliphor EL:0.9% saline) by i.p. administration. Mice were evaluated for hypomotility (open field test), hypothermia (body temperature), antinociceptive (hot plate test), and cataleptic (bar test) effects, using the tetrad tests^58. Statistical analysis was performed using the Kruskall-Wallis test and Dunn's post hoc tests.
Openfield. The open field test was used for the evaluation of motor activity. Behavioral assays were performed 30 min after drug (or vehicle) injection. The apparatus was cleaned before each behavioral session by solution of 70% ethanol. Naïve mice were randomly assigned to a treatment group. Behaviors were recorded, stored, and analyzed using an automated behavioral tracking system (Smart v3.0, Panlab Harvard Apparatus). Mice were placed in an OFT arena (1×w×h: 25 cm×25 cm), and ambulatory activity (total distance travelled in centimeter), were recorded for 15 minutes and analyzed.

Assay [2] concerns C57BL6/J mice. As to the kind of experiment: Tetrad: bar test (catalepsy). The settings on record: mean±SEM. As for the experimental part: as §1
Bar test. The bar used was a 40 cm long and 0.4 cm wide in diameter glass rod, which was horizontally elevated by 5 cm above the surface. Both forelimbs of the mouse were positioned on the bar and its hind legs on the floor of the cage, ensuring that the animal was not lying down on the floor. The chronometer was stopped when the mouse descended from the bar (i.e., when the two forepaws touched the floor) or after the 10 min cut-off time. Catalepsy was measured as the time duration each mouse held the bar by both his forelimbs (latency for moving in seconds).
as §2
Bar test. The bar test was used for the evaluation of catalepsy. Bar was a 40 cm in length and 0.4 cm in diameter glass rod, which was horizontally elevated by 5 cm above the surface. Both forelimbs of mice were positioned on the bar and its hind legs on the floor of the cage, ensuring that the mouse was not lying down on the floor. The chronometer was stopped when the mouse descends from the bar (i.e., when the two forepaws touched the floor) or when 10 min have elapsed (i.e., cut-off time). Catalepsy was measured as the time duration each mouse held the elevated bar by both his forelimbs (latency for moving in seconds).

The test system of assay [3] is C57BL6/J mice. As to the kind of experiment: Tetrad: hot plate test (analgesia). The settings on record: 52° C., 85 min after administration, mean±SEM. As for the experimental part:
as §1
Hotplate test. Each mouse was placed on a hot plate (Ugo Basile), which was kept at a constant temperature of 52° C. The nociceptive response (NR) was recorded as characteristic actions of the mouse like licking of the hind paws, as well as jumping. The latency to the NR was measured in sec 85 minutes after drug or vehicle administration. A 30 or 60 sec cut-off time was used in order to prevent tissue damage.
as §2
Hot plate. Changes in nociception were evaluated by the hot plate test. On the day of experiment each mouse was placed on a hot plate (Ugo Basiele) at a constant temperature of 52° C. Licking of the hind paws, as well as jumping, were considered as a nociceptive response (NR) and the latency was measured in seconds 85 minutes after drug or vehicle administration. The latency to the NR was recorded and a 30 or 60 s cut-off time was used in order to prevent tissue damage.
A general note: Hot-plate and tail-flick tests time the reaction to a heat stimulus.

Assay [4] concerns C57BL6/J mice. In words: Tetrad: body (rectal) temperature test. As to conditions: mean±SEM; for change in body temperature: difference to basal temperature, n=5, vehicle 0.40; for change in rectal temperature: 50 min after administration vs basal, n=4, vehicle 0.53. As for the experimental part: as §1
Body temperature test. A probe was gently inserted for 1 cm into the mouse rectum after the animal had been immobilized. The probe was washed and cleaned with 70% ethanol and the dried with a paper towel. The body temperature was measured after stabilization of the value in ° C. in basal conditions and at 50 minutes after drug or vehicle administration.
as §2
Body temperature. The mouse was immobilized and the probe gently inserted for 1 cm into the rectum until stabilization of temperature. Between each mouse the probe was cleaned with 70% ethanol and dried with paper towel.

In assay [5] the test system is C57BL6/J mice. In words: Tetrad test, overall cannabimimetic profile. The settings on record: i.p. As for the experimental part: Tetrad test. Male C57BL6/J mice 6-8 weeks (Envigo, Italy) were housed under controlled conditions (12 h light/12 h dark cycle; temperature 20-22 C; humidity 55-60%) with chow and tap water available ad libitum. All surgeries and experimental procedures were approved by the Animal Ethics Committee of University of Campania “L. Vanvitelli,” Naples. Animal care was in compliance with Italian (D.L. 116/92) and European Commission (O.J. of E.C. L358/1 […]) regulations on the protection of laboratory animals. All efforts were made to minimize animal suffering and to reduce the number of animals used. All the experiments were performed in a randomized manner by the same operator blind to pharmacological treatments.
as §1, §2

`CCCCCCCc1cc(O)c2c(c1)OC(C)(C)[C@@H]1CCC(C)=C[C@@H]21` [Δ^9-THCP, (6aR,10aR)-3-heptyl-6,6,9-trimethyl-6a,7,8,10a-tetrahydro-6H-benzo[c]chromen-1-ol]: the “open field: distance travelled” value in the assay with C57BL6/J mice [1] (Δ^9-THCP 2.5 mg/kg i.p., n=5, vehicle 6888) worked out at 4072 cm; in the assay with C57BL6/J mice [1] (Δ^9-THCP 5 mg/kg i.p., n=5, vehicle 6888), 127.5 cm; with C57BL6/J mice [1] (Δ^9-THCP 10 mg/kg i.p., n=5, vehicle 6888) it was 166.8 cm. Besides, the “bar test: latency for moving from the catalepsy bar” value in the assay with C57BL6/J mice [2] (Δ^9-THCP 2.5 mg/kg i.p., 10 min cut-off, n=5, vehicle 15.20) was 346.1 s; in the assay on C57BL6/J mice [2] (Δ^9-THCP 5 mg/kg i.p., 10 min cut-off, n=5, vehicle 15.20), 493.4 s; with C57BL6/J mice [2] (Δ^9-THCP 10 mg/kg i.p., 10 min cut-off, n=5, vehicle 15.20) it was 484.5 s. The “hot plate: latency to nociceptive response” value came out at 40.22 s with C57BL6/J mice [3] (Δ^9-THCP 2.5 mg/kg i.p., not statistically significant, n=5, vehicle 19.20); 54.38 s in the assay on C57BL6/J mice [3] (Δ^9-THCP 5 mg/kg i.p., n=5, vehicle 19.20); 57.0 s in the assay with C57BL6/J mice [3] (Δ^9-THCP 10 mg/kg i.p., n=5, vehicle 19.20). Besides, the entries for the “change in body temperature” value in the assay with C57BL6/J mice [4] (Δ^9-THCP 2.5 mg/kg i.p.), in the assay on C57BL6/J mice [4] (Δ^9-THCP 5 mg/kg i.p.) and with C57BL6/J mice [4] (Δ^9-THCP 10 mg/kg i.p.) were −4.12 °C, −5.28 °C and −7.10 °C, respectively. Also, the “cannabimimetic profile in the tetrad test (in words)” value in the assay on C57BL6/J mice [5] is “THC-like cannabimimetic activity; also recorded: miming the properties of full CB1 receptor agonists”. The “dose at which active in three of the four tetrad tests” value in the assay on C57BL6/J mice [5] is given as 5 mg/kg.
In the case of `CCCCc1cc(O)c2c(c1)OC(C)(C)[C@@H]1CCC(C)=C[C@@H]21` [Δ^9-THCB, (6aR,10aR)-3-butyl-6,6,9-trimethyl-6a,7,8,10a-tetrahydro-6H-benzo[c]chromen-1-ol], the “open field: distance travelled” value with C57BL6/J mice [1] (Δ^9-THCB 10 mg/kg i.p., 30 min after injection, 15 min, n=4, vehicle 3283) is 3220 cm; in the assay on C57BL6/J mice [1] (Δ^9-THCB 20 mg/kg i.p., 30 min after injection, 15 min, n=4, vehicle 3283), 3591 cm. Besides, the “bar test: latency for moving from the catalepsy bar” value in the assay on C57BL6/J mice [2] (Δ^9-THCB 10 mg/kg i.p., n=4, vehicle 3.50) came out at 3.0 s; with C57BL6/J mice [2] (Δ^9-THCB 20 mg/kg i.p., n=4, vehicle 3.50), 13.0 s. The “hot plate: latency to nociceptive response” value is 7.94 s in the assay on C57BL6/J mice [3] (Δ^9-THCB 10 mg/kg i.p., n=4, vehicle 10.15) and 17.50 s in the assay on C57BL6/J mice [3] (Δ^9-THCB 20 mg/kg i.p., n=4, vehicle 10.15). The figures for the “change in rectal temperature” value with C57BL6/J mice [4] (Δ^9-THCB 10 mg/kg i.p.) and in the assay on C57BL6/J mice [4] (Δ^9-THCB 20 mg/kg i.p.) were −0.28 °C and 0.40 °C, respectively. Moreover, the “cannabimimetic profile in the tetrad test (in words)” value in the assay on C57BL6/J mice [5] is listed as “partial agonistic activity; also recorded: partial agonist for CB1 receptor”.
